Source: patent US9725442B2, “Heterocyclic derivative having PGD2 receptor antagonist activity” (Shionogi & Co., Ltd., priority 2011, dated 2017)
Where two headings read alike, the source gives them in different places.

What was measured:
CYP2D6 = CYP2D6 (Homo sapiens (Human), UniProt P10635); assay: CYP inhibition test, dextromethorphan O-demethylation; format: in vitro ADME; settings: pooled human hepatic microsome, 5 μmol/L dextromethorphan
Description: (§1) Using commercially available pooled human hepatic microsome, and employing, as markers, 7-ethoxyresorufin O-deethylation (CYP1A2), tolbutamide methyl-hydroxylation (CYP2C9), mephenyloin 4′-hydroxylation (CYP2C19), dextromethorphan O-demethylation (CYP2D6), and terfenedine hydroxylation as typical substrate metabolism reactions of human main five CYP enzyme forms (CYP1A2, 2C9, 2C19, 2D6, 3A4), an inhibitory degree of each metabolite production amount by a compound of the present compound was assessed.
(§2) The reaction conditions were as follows: substrate, 0.5 μmol/L ethoxyresorufin (CYP1A2), 100 μmol/L tolbutamide (CYP2C9), 50 μmol/L S-mephenyloin (CYP2C19), 5 μmol/L dextromethorphan (CYP2D6), 1 μmol/L terfenedine (CYP3A4); reaction time, 15 minutes; reaction temperature, 37° C.; enzyme, pooled human hepatic microsome 0.2 mg protein/mL; concentration of a compound of the present invention, 1, 5, 10, 20 μmol/L (four points).
(§3) Each five kinds of substrates, human hepatic microsome, or a compound of the present invention in 50 mM Hepes buffer as a reaction mixture was added to a 96-well plate at the composition as described above, NADPH, as a cofactor was added to initiate metabolism reactions as markers and. After the incubation at 37° C. for 15 minutes, a methanol/acetonitrile=1/1 (v/v) solution was added to stop the reaction. After the centrifugation at 3000 rpm for 15 minutes, resorufin (CYP1A2 metabolite) in the supernatant was quantified by a fluorescent multilabel counter and tolbutamide hydroxide (CYP2C9 metabolite), mephenyloin 4′ hydroxide (CYP2C19 metabolite), dextrorphan (CYP2D6 metabolite), and terfenadine alcohol (CYP3A4 metabolite) were quantified by LC/MS/MS.

[1] = Metabolism stability test; format: in vitro ADME; settings: human liver microsomes, 30 minutes, 37° C., NADPH, 0.5 μmol/L of the compound
Method: Using a commercially available pooled human hepatic microsomes, a compound of the present invention was reacted for a constant time, a remaining rate was calculated by comparing a reacted sample and an unreacted sample, thereby, a degree of metabolism in liver was assessed.
A reaction was performed (oxidative reaction) at 37° C. for 0 minute or 30 minutes in the presence of 1 mmol/L NADPH in 0.2 mL of a buffer (50 mmol/L Tris-HCl pH 7.4, 150 mmol/L potassium chloride, 10 mmol/L magnesium chloride) containing 0.5 mg protein/mL of human liver microsomes. After the reaction, 50 μL of the reaction mixture was added to 100 μL of a methanol/acetonitrile=1/1 (v/v), mixed and centrifuged at 3000 rpm for 15 minutes. The compound of the present invention in the supernatant was quantified by LC/MS/MS, and a remaining amount of the compound of the present invention after the reaction was calculated, letting a compound amount at 0 minute reaction time to be 100%. Glucuronidation reaction was in the presence of 5 mM UDP-glucuronic acid in place of NADPH, followed by similar operations.

CYP2C19 = CYP2C19 (Homo sapiens (Human), UniProt P33261); assay: CYP inhibition test, mephenyloin 4'-hydroxylation; format: in vitro ADME; settings: pooled human hepatic microsome, 50 μmol/L S-mephenyloin
Sequence of CYP2C19 (P33261 whole entry): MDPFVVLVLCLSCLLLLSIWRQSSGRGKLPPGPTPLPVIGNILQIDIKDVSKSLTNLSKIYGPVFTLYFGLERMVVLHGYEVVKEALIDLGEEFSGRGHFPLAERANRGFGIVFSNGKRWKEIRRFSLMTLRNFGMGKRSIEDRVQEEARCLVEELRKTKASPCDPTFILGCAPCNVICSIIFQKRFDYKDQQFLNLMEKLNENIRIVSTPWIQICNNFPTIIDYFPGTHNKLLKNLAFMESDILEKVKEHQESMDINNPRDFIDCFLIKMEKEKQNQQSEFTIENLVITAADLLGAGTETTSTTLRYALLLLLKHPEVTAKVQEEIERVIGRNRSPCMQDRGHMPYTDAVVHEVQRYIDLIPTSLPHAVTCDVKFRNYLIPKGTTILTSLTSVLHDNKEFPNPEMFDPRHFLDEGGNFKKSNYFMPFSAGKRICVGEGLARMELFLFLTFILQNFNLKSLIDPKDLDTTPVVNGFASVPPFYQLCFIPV
Description: as §1, §2, §3

CYP3A4 = CYP3A4 (Homo sapiens (Human), UniProt P08684); assay: CYP inhibition test, terfenedine hydroxylation; format: in vitro ADME; settings: pooled human hepatic microsome, 1 μmol/L terfenedine
Sequence of CYP3A4 (P08684 whole entry): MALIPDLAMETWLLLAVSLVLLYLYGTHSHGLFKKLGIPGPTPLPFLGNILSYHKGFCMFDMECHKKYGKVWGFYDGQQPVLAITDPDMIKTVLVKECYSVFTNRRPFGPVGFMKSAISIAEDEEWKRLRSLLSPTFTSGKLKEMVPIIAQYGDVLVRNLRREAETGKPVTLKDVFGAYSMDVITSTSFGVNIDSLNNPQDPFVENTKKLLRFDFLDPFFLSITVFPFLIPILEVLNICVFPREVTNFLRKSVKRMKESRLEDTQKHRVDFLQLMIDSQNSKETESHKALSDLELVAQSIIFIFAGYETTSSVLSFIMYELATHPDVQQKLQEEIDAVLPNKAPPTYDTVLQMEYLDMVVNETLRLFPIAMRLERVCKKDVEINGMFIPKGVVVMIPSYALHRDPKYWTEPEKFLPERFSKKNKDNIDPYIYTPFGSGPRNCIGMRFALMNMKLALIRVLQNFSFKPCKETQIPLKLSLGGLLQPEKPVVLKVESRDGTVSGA
Description: as §1, §2, §3

[2] = biological target: CYP3A4 enzyme expressed in Escherichia coli (Homo sapiens (Human), UniProt P08684); assay: CYP3A4 fluorescent MBI test; format: in vitro ADME; settings: pre-reaction time 0 or 30 minutes, substrate 7-BFC; read-out: CYP3A4 MBI, difference between IC50 values with and without preincubation
Sequence of CYP3A4 enzyme expressed in Escherichia coli (P08684 whole entry): as above
Method: The CYP3A4 fluorescent MBI test is a test of investigating enhancement of CYP3A4 inhibition of a compound by a metabolism reaction, and the test was performed using, as CYP3A4 enzyme expressed in Escherichia coli and employing, as an index, a reaction in which 7-benzyloxytrifluoromethylcoumarin (7-BFC) is debenzylated by the CYP3A4 enzyme to produce a metabolite, 7-hydroxytrifluoromethylcoumarin (HFC) emitting fluorescent light.
The reaction conditions were as follows: substrate, 5.6 μmol/L 7-BFC; pre-reaction time, 0 or 30 minutes; reaction time, 15 minutes; reaction temperature, 25° C. (room temperature); CYP3A4 content (expressed in Escherichia coli), at pre-reaction […], at reaction […] (at 10-fold dilution); concentration of a compound of the present, 0.625, 1.25, 2.5, 5, 10, 20 μmol/L (six points).
An enzyme in a K-Pi buffer (pH 7.4) and a compound solution of the present invention as a pre-reaction mixture were added to a 96-well plate at the composition of the pre-reaction, a part of it was transferred to another 96-well plate so that it was 1/10 diluted by a substrate in a K-Pi buffer, NADPH as a co-factor was added to initiate a reaction as an index (without preincubation) and, after a predetermined time of a reaction, acetonitrile/0.5 mol/L Tris(trishydroxyaminomethane)=4/1 (V/V) was added to stop the reaction. In addition, NADPH was added to a remaining preincubation solution to initiate a preincubation (with preincubation) and, after a predetermined time of a preincubation, a part was transferred to another plate so that it was 1/10 diluted with a substrate and a K-Pi buffer to initiate a reaction as an index. After a predetermined time of a reaction, acetonitrile/0.5 mol/L Tris(trishydroxyaminomethane)=4/1 (V/V) was added to stop the reaction. For the plate on which each index reaction had been performed, a fluorescent value of 7-HFC which is a metabolite was measured with a fluorescent plate reader. (Ex=420 nm, Em=535 nm).

CYP1A2 = CYP1A2 (Homo sapiens (Human), UniProt P05177); assay: CYP inhibition test, 7-ethoxyresorufin O-deethylation; format: in vitro ADME; settings: pooled human hepatic microsome, 0.5 μmol/L ethoxyresorufin
Sequence of CYP1A2 (P05177 whole entry): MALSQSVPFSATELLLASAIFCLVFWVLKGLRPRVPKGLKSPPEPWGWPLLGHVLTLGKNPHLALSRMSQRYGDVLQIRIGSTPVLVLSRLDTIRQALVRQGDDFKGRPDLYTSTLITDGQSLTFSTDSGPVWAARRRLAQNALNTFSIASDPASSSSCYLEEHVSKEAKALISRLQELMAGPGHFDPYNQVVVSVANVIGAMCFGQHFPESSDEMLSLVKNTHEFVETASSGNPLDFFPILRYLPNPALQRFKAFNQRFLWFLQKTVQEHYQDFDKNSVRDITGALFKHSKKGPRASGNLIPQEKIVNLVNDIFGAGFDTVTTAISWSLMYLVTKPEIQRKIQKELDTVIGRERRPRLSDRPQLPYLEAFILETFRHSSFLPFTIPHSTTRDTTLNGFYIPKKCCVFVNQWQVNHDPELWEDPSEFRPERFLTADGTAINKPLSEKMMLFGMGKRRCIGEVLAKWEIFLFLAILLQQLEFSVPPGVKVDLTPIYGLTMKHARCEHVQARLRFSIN
Description: as §1, §2, §3

CYP2C9 = CYP2C9 (Homo sapiens (Human), UniProt P11712); assay: CYP inhibition test, tolbutamide methyl-hydroxylation; format: in vitro ADME; settings: pooled human hepatic microsome, 100 μmol/L tolbutamide
Sequence of CYP2C9 (P11712 whole entry): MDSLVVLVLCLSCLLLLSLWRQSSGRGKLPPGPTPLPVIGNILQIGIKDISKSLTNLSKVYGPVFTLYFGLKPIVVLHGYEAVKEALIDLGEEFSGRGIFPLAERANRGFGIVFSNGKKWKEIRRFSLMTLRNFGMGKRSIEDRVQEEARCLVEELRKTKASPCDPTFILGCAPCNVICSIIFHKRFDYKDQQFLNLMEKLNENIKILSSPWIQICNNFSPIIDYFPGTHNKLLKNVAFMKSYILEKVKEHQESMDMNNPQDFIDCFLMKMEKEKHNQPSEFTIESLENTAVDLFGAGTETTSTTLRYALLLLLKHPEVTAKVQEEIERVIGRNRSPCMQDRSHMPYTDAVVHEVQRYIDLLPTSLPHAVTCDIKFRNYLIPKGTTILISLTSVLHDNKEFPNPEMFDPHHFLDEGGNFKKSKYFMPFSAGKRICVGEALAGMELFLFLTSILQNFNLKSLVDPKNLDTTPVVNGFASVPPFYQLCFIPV
Description: as §1, §2, §3

[3] = Solubility test (1% DMSO addition, artificial intestinal juice pH 6.8); format: physicochemical; settings: fassgf or other biorelevant, kinetic from dmso stock, artificial intestinal juice pH 6.8, 16 hours at 25° C.
Method: A 10 mmol/L solution of the compound of the present invention is prepared with DMSO, and 6 μL of the compound solution is added to 594 μL of an artificial intestinal juice (water and 118 mL of 0.2 mol/L NaOH reagent are added to 250 mL of 0.2 mol/L potassium dihydrogen phosphate reagent to reach 1000 mL) with a pH of 6.8. The mixture is left standing for 16 hours at 25° C., and the mixture is vacuum-filtered. The filtrate is two-fold diluted with methanol/water=1/1 (V/V), and the compound concentration in the filtrate is measured with HPLC or LC/MS/MS by the absolute calibration method.

Human DP1 receptor = Human DP1 receptor (Homo sapiens (Human), UniProt Q13258); assay: Human DP1 inhibitory activity in DP1-expressing cell (PGD2-induced cAMP); format: cell-based; settings: category of cAMP IC50, human DP1 receptor expressing Jurkut cell
Sequence of Human DP1 receptor (Q13258 whole entry): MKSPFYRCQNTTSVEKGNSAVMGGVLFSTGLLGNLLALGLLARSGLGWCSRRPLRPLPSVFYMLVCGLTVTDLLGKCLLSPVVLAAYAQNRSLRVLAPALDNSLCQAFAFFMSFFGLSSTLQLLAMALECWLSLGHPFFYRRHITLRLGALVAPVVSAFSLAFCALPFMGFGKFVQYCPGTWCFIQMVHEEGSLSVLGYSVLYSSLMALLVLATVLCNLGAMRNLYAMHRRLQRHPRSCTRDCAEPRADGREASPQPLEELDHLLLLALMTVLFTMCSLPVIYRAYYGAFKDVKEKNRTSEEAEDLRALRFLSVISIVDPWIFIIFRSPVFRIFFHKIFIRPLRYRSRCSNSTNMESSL
Method: Compounds were categorized as AA (cAMP is less than 100 nM) and A (cAMP is more than 100 nM and less than 5000 nM) as shown in Table 99 and 100.

CRTH2 [4] = biological target: T1, CRTH2 (Homo sapiens (Human), UniProt Q9Y5Y4); assay: CRTH2 receptor binding inhibitory activity ([3H]-PGD2 displacement, membranes of CRTH2-expressing K562 cell); settings: [3H]-PGD2 displacement, membrane of CRTH2-expressing K562 cell, read-out: Ki
T1 sequence (Q9Y5Y4 whole entry): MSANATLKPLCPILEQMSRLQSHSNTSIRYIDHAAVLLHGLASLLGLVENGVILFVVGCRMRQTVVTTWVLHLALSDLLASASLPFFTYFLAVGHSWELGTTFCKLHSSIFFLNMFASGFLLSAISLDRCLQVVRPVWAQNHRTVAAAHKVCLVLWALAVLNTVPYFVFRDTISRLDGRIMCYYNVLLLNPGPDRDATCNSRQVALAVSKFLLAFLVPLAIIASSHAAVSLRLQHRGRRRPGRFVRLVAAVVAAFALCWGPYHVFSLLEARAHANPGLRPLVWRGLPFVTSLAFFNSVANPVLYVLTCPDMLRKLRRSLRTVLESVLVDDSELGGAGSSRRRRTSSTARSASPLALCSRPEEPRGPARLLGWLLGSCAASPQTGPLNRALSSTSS
How it was run: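 Incubation ran 60 min at room temperature using 20 μg/well membrane from CRTH2-expressing K562 cells in pH 7.4 Tris/HCl (50 mM) with 10 mM MgCl2.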

CRTH2 [5] = biological target: T1, CRTH2; assay: CRTH2 inhibitory activity in CRTH2-expressing cells (PGD2-induced intracellular calcium increase, K562); format: cell-based; settings: 200 nM PGD2, read-out: IC50, inhibition of intracellular calcium concentration increase induced by PGD2
Method: CRTH2 inhibitory activities of compounds were determined as inhibition activity of intra-cellular calcium concentration increase induced by PGD2 in CRTH2-expressing cells.
CRTH2-expressing K562 cells were suspended at concentration of 2×10^6 cells/ml in buffer (10 mM HEPES, pH 7.4, 0.1% Bovine serum albumin). Cells were incubated with […] (4 μM) for 30 min at room temperature. Cells were washed, resuspended and mixed with various concentration of compounds of the present invention. After 2 min, cells were treated with 200 nM of PGD2. Then intracellular calcium concentration was measured using intracellular ion analyzer (FDSS3000). Inhibition ratio was defined by comparing intracellular calcium concentration increase with and without compound, and IC50 for each compound was calculated from inhibitory curve.

[6] = CRTH2 receptor binding, categorized AAAA/AAA

Sequence of CYP2D6 (P10635 whole entry): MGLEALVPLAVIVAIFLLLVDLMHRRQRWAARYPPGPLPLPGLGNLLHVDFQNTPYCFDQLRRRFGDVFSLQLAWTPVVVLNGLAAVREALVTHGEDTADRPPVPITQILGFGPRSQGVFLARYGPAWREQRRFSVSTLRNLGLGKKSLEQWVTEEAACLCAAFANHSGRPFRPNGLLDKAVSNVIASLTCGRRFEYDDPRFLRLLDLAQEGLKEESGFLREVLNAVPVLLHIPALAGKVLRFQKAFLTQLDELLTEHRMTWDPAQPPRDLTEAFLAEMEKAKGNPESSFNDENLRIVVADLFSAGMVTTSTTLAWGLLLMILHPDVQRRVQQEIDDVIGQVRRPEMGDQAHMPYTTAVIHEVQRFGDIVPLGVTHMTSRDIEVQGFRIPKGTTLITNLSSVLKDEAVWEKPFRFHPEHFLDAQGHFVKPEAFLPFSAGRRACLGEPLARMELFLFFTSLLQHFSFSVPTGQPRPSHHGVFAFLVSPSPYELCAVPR

| IC50 (CYP2D6) [µM] | remaining rate after reaction (result heading prints '% inhibition') [1] [%] | IC50 (CYP2C19) [µM] | IC50 (CYP3A4) [µM] | difference in IC50 with vs without preincubation [2] [µM] | IC50 (CYP1A2) [µM] | IC50 (CYP2C9) [µM] | solubility at 16 h [3] [µM] | IC50 (Human DP1 receptor) [µM] | Ki (CRTH2 [4]; [6]) [µM] | Ki (CRTH2 [4]) [µM] | IC50 (CRTH2 [5]) [µM] | Structure (SMILES) |
| --- | --- | --- | --- | --- | --- | --- | --- | --- | --- | --- | --- | --- |
| > 20 | 98.7 | > 20 | > 20 | ≤ 3 | > 20 | > 20 | > 50 | 0.1 to 5 | < 0.1 | 0.0062 |  | CC(C)Oc1ccc(S(=O)(=O)N2C[C@H](n3nc(CC(=O)O)c4ccc(F)cc43)C[C@H]2CO)cc1 [Compound I-9] |
|  | 91.8 |  |  |  |  |  |  | 0.1 to 5 | < 0.1 | 0.016 |  | CC(C)Oc1ccc(S(=O)(=O)N2C[C@@H](N3CCCC3)[C@@H](n3nc(CC(=O)O)c4ccc(F)cc43)C2)cc1 [Compound I-47] |
| > 20 | 94.7 | > 20 | > 20 |  | > 20 | > 20 | > 50 | 0.1 to 5 | < 0.1 | 0.00059 | 0.086 | C[C@@H]1CN(S(=O)(=O)c2ccc(Cl)cc2)C[C@@H]1n1nc(CC(=O)O)c2ccc(F)cc21 [Compound I-49] |
| > 20 |  | > 20 | > 20 |  | > 20 | > 20 | > 50 | < 0.1 | 0.1 to 5 | 0.68 |  | CC(C)Oc1ccc(S(=O)(=O)N2CC[C@H](n3nc(CC(=O)O)c4ccc(F)cc43)[C@@H](C)C2)cc1 [Compound I-74] |
|  | 99.2 |  |  | ≤ 3 |  |  |  | < 0.1 | 0.1 to 5 |  |  | CC(C)Oc1ccc(S(=O)(=O)N2CC[C@H](n3nc(CC(=O)O)c4ccc(F)cc43)[C@H](C)C2)cc1 [Compound I-75] |
